Literature values in patent US20260263387A1, “INTRANASAL EPINEPHRINE FORMULATIONS AND METHODS OF USE” (ARS Pharmaceuticals Operations, Inc., priority 2024, published 2026).

blood level of epinephrine (intranasal dose level of 2.5 mg and below (0.3 mg, 0.6 mg, 1.25 mg, or 2.5 mg)): no blood level
significant systemic absorption of epinephrine via the IN route (intranasal, Srisawat): observed only at 5 mg
Structure (SMILES): CNC[C@H](O)c1ccc(O)c(O)c1 [epinephrine, (R)-4-(1-Hydroxy-2-(methylamino)ethyl)benzene-1,2-diol]
